≈ marks a conversion by molar mass, not a printed value.
Key:
A549 [1] = experiment: Effect on cell cycle distribution in human A549 cells assessed as accumulation at […] phase at 20 ug/ml after 24 hrs by propidium iodide staining based flow cytometry method (reference value: 1.96%); type: functional
HUVEC = experiment: Antiproliferative activity against human HUVEC cells assessed as growth inhibition after 48 hrs by MTT assay; type: cell-based
A549 [2] = experiment: Antiproliferative activity against human A549 cells assessed as growth inhibition after 48 hrs by MTT assay; type: functional, cell-based; conditions: A549, 48 h
A549 [3] = experiment: Effect on cell cycle distribution in human A549 cells assessed as accumulation at G2 phase at 20 ug/ml after 24 hrs by propidium iodide staining based flow cytometry method (reference value: 8%); type: functional
HT-29 = experiment: Antiproliferative activity against human HT-29 cells assessed as growth inhibition after 48 hrs by MTT assay; type: functional, cell-based; conditions: HT-29, 48 h
A549 [4] = experiment: Effect on cell cycle distribution in human A549 cells assessed as accumulation at S phase at 20 ug/ml after 24 hrs by propidium iodide staining based flow cytometry method (reference value: 38.76%); type: functional
A549 [5] = experiment: Induction of ROS generation in human A549 cells assessed as fold change at 20 ug/ml after 24 hrs by FACS-flow cytometry method relative to control; type: functional
A549 [6] = experiment: Effect on cell cycle distribution in human A549 cells assessed as accumulation at G1 phase at 20 ug/ml after 24 hrs by propidium iodide staining based flow cytometry method (reference value: 53.24%); type: functional
MCF7 = experiment: Antiproliferative activity against human MCF7 cells assessed as growth inhibition after 48 hrs by MTT assay; type: functional, cell-based; conditions: MCF7, 48 h
A549 [7] = experiment: Induction of ROS generation in human A549 cells at 20 ug/ml after 24 hrs by FACS-flow cytometry method (reference value: 20.51); type: functional

COC1=Cc2ccc3cc(O)ccc3c2C(=O)C1=O
Activity (A549 [1]): 2%
IC50 (HUVEC): 48.3 µg/mL (≈ 190 µM)
IC50 (A549 [2]): 19.7 µg/mL (≈ 77.6 µM)
Activity (A549 [3]): 6.47%
IC50 (HT-29): 25 µg/mL (≈ 98.4 µM)
Activity (A549 [4]): 30.31%
fold change (FC) (A549 [5]): 6
Activity (A549 [6]): 63.22%
IC50 (MCF7): 18.5 µg/mL (≈ 72.7 µM)
Flu intensity (A549 [7]): 136

COC1=C(c2c(O)ccc3c2ccc2cc(OC)c(O)c(OC)c23)c2ccc3cc(O)ccc3c2C(=O)C1=O
Activity (A549 [1]): 1.95%
IC50 (HUVEC): 33.5 µg/mL (≈ 64.1 µM)
IC50 (A549 [2]): 22.6 µg/mL (≈ 43.3 µM)
Activity (A549 [3]): 8%
IC50 (HT-29): 22.7 µg/mL (≈ 43.4 µM)
Activity (A549 [4]): 22.6%
fold change (FC) (A549 [5]): 10
Activity (A549 [6]): 69.4%
IC50 (MCF7): 12.6 µg/mL (≈ 24.2 µM)
Flu intensity (A549 [7]): 256.68

COc1cc2ccc3c(OC)c(O)ccc3c2c(OC)c1O
IC50 (HUVEC): > 100 µg/mL
IC50 (A549 [2]): > 100 µg/mL
IC50 (HT-29): > 100 µg/mL
IC50 (MCF7): > 100 µg/mL

COc1cc(O)c2c(c1)C(=O)c1cc(C)cc(O)c1C2=O [PHYSCION]
IC50 (HUVEC): > 100 µg/mL
IC50 (A549 [2]): > 100 µg/mL
IC50 (HT-29): > 100 µg/mL
IC50 (MCF7): > 100 µg/mL

Cc1ccc2c(c1)C(=O)c1ccccc1C2=O [TECTOQUINONE]
IC50 (HUVEC): > 100 µg/mL
IC50 (A549 [2]): > 100 µg/mL
IC50 (HT-29): > 100 µg/mL
IC50 (MCF7): > 100 µg/mL

COc1cc(C(=O)O)ccc1O [VANILLIC ACID]
IC50 (HUVEC): > 100 µg/mL
IC50 (A549 [2]): > 100 µg/mL
IC50 (HT-29): > 100 µg/mL
IC50 (MCF7): > 100 µg/mL
